Assay results from US20230293535A1, “ERBB/BTK INHIBITORS” (Dizal (Jiangsu) Pharmaceutical Co., Ltd., priority 2018, published 2023).
Structures can show the parent of a compound that is named as a salt. Where two headings read alike, the source gives them in different places.

How the values were obtained:
Format in all cases: cell-based
[1] = biological target: T1, human EGFR exon 20 H773_V774insNPH (Homo sapiens, UniProt P00533, INS773NPH); experiment: EGFR Exon20 NPH insertion cellular phosphorylation inhibition (MSD pEGFR Y1068/total EGFR); conditions: Ba/F3 EGFR NPH ins cells, 4 h compound, p-EGFR(Y1068)/total EGFR;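 note: IL3-independent Ba/F3 cells with constitutively phosphorylated EGFR, compound exposure at 37 °C under 5% CO2, electrochemiluminescent MSD measurement of the p-EGFR to total EGFR ratio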
T1 construct: host or cells: Ba/F3

[2] = tested on: TMD-8 cells; experiment: BTK (wt) cell proliferation, TMD-8 (CellTiter-Glo, 72 h); conditions: Homo sapiens, TMD8, 72 h, TMD-8 cells, 72 h, CellTiter-Glo; read-out: BTK WT TMD-8 GI50;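 note: viable cells quantified by ATP-based luminescence, proliferation expressed as percent of DMSO control after subtracting a time-zero baseline plate read at dosing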
[3] = biological target: T2, human Her2 exon 20 insertion mutation YVMA (Homo sapiens, UniProt P04626, INS775YVMA); experiment: Her2 Exon 20 YVMA insertion cellular phosphorylation inhibition (MSD p-Her2 Y1248/total Her2); conditions: Her2 YVMAins cells, 4 h compound;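 note: lentivirally transduced NIH-3T3 cells in 1% FBS medium, electrochemiluminescent MSD read-out, graded compound concentrations at 37 °C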
T2 construct: expressed in transfected cells; host or cells: NIH-3T3, lentiviral transduction, puromycin selection
Description: The resulting cell line expressed phosphorylated Her2 protein and its proliferation depended on the mutation gene, which could be used for in vitro PD and anti-proliferation assays.
(§1) One day before the test, WT or mutant cells were seeded in 96 well plates at appropriate concentrations with corresponding growth media supplemented with 1% FBS, and incubated overnight. The next day, tested compounds at a series of concentrations were added into each individual well of the plates, and the plates were incubated for 4 h at 37° C. with 5% CO2.
(§2) The EGFR (Y1068) phosphorylation level (activity) of cells in each well were then measured with MSD kit named “MULTI-SPOT®96 4-Spot HB Prototype EGFR Triplex [sequence]: pEGFR(Tyr1068),pEGFR(Tyr1173), Total EGFR” according to the manufacturer’s instruction (MESO SCALE DISCOVERY, Cat# N45ZB-1). The assay is an electrochemiluminescent method for determining both phosphorylated and total EGFR of cells with an MSD SECTOR® Imager and the ratio of p-EGFR/total EGFR can be generated by the machine. The Her2 (Y1248) phosphorylation level (activity) of cells in each well were measured with MSD Kit named “Phospho-ErbB2 (Tyr1248) Assay Whole Cell Lysate Kit” according to the manufacturer’s instruction (MESO SCALE DISCOVERY, Cat# K151CLD-3). The assay is an electrochemiluminescent method (MESO SCALE DISCOVERY) for determining both phosphorylated and total Her2 of cells with an MSD SECTOR® Imager and then the ratio of p-Her2/total Her2 can be generated by the machine.

[4] = tested on: Ri-1 cells; experiment: BTK (wt) cell proliferation, Ri-1 (CellTiter-Glo, 72 h); conditions: Ri-1, 72 h, Ri-1 cells, 72 h, CellTiter-Glo; read-out: BTK WT Ri-1 GI50;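 note: viable cells quantified as cellular ATP luminescence, proliferation normalized to a time-zero plate and the DMSO control, compounds tested across a dilution series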
[5] = tested on: Her2 exon 20 insertion YVMA transduced NIH-3T3 cell line; experiment: Cell proliferation, Her2 YVMAins NIH-3T3 (CellTiter-Glo, 72 h); conditions: Mus musculus, NIH3T3, 72 h, Her2 YVMAins cells, 72 h proliferation; read-out: Her2 Exon 20 YVMA insertion GI50;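 note: viable cells quantified by ATP luminescence, growth over a day-zero baseline plate expressed as percent of DMSO control growth, compound dilution series in 10% FBS medium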
Description: (§3) WT or mutant cells were seeded in 384 well plates at appropriate concentrations with corresponding growth media supplemented with 10% FBS, for each experiment, identical plates were prepared in duplicates, and the plates were incubated overnight. On the next day, one of each duplicated plates was dosed with tested compounds at a series of concentrations, and another one of the duplicated plate was analysied for G0 value. The dosed plates were incubate for another 72 h at 37° C. with 5% CO2 and the number of viable cells in each well of the G0 plates or the dosed plates were measured by CellTiter-Glo® Luminescent Cell Viability Assay (Promega). This assay is a luminescent method for determining the number viable cells through measurement of cellular ATP concentration by detection of luciferase activity. Detection reagents (15 µl) was dispensed into per well, and the plates were incubate for 30 min at room temperature. Then, the luminescence in each well was measured using the Envision plate reader (PerkinElmer). The percentage of proliferation was calculated based on the formula: %Proliferation= 100 × (G3 value of sample well-Go value)/(G3 value of DMSO control-Go value).

[6] = biological target: T3, human EGFR exon 20 V769_D770insASV (Homo sapiens, UniProt P00533, INS769ASV); experiment: EGFR Exon20 ASV insertion cellular phosphorylation inhibition (MSD pEGFR Y1068/total EGFR); conditions: Ba/F3 EGFR ASV ins cells, 4 h compound, p-EGFR(Y1068)/total EGFR;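 note: electrochemiluminescent readout on an MSD SECTOR Imager, IL3-independent transduced cells in medium with 1% FBS, compound concentration series at 37 °C and 5% CO2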
T3 construct: expressed in transfected cells; host or cells: Ba/F3 (DSMZ ACC-300), lentiviral transduction, puromycin selection, IL3 depletion
Description: To generate the EGFR exon 20 V769_D770insASV transduced Ba/F3 cell line, the parental Ba/F3 cells were infected with the recombinant EGFR V769_D770insASV lentivirus and then followed by 1 µg/ml of puromycin selection and IL3 depletion. The resulting cell line expresses constitutively phosphorylated EGFR protein and proliferates in the absence of IL3, which could be used for in vitro PD and anti-proliferation assays.
as §1, §2

[7] = biological target: T4, WT EGFR (Homo sapiens, UniProt P00533); experiment: WT EGFR cellular phosphorylation inhibition in A-431 (hEGF stimulated, MSD); conditions: A431 cells, 4 h compound, then 100 ng/ml hEGF 10 min;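 note: electrochemiluminescence read-out of EGFR Tyr1068 phosphorylation expressed as ratio to total EGFR, cells kept in medium with 1% FBS, compounds tested as a concentration series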
T4 construct: host or cells: A-431

[8] = tested on: Ba/F3 EGFR NPH ins cells; experiment: Cell proliferation, Ba/F3 EGFR NPH ins (CellTiter-Glo, 72 h); conditions: Ba/F3 EGFR, 72 h;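 note: IL3-independent cells carrying constitutively phosphorylated EGFR, compound dilution series, viable cells quantified by ATP luminescence, growth relative to DMSO wells after subtracting pre-dosing (day 0) baseline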
[9] = tested on: Ba/F3 EGFR ASV ins cells; experiment: Cell proliferation, Ba/F3 EGFR ASV ins (CellTiter-Glo, 72 h); conditions: Ba/F3 EGFR, 72 h;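 note: IL3-independent Ba/F3 cells transduced with EGFR V769_D770insASV, cellular ATP luminescence after compound exposure, growth relative to DMSO control with the day-0 baseline reading subtracted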
Description: as §3

[10] = tested on: WT EGFR cell line A-431; experiment: Cell proliferation, WT EGFR A431 (CellTiter-Glo, 72 h); conditions: Homo sapiens, A-431, 72 h;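 note: proliferation from a luminescent ATP viability signal, expressed as 100 × (treated minus time-zero plate) over (DMSO control minus time-zero plate), cells grown with 10% FBS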
[11] = tested on: NCI-H1975 EGFR L858R/T790M cells; experiment: Cell proliferation, NCI-H1975 EGFR L858R/T790M (CellTiter-Glo, 72 h); conditions: Homo sapiens, NCI-H1975, 72 h;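 note: viable cells quantified by luciferase-based ATP luminescence, proliferation expressed relative to DMSO-treated wells (100%) after subtracting a parallel plate read at the time of dosing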
Description: as §3

[12] = tested on: DB cells; experiment: BTK (wt) cell proliferation, DB (CellTiter-Glo, 72 h); conditions: Homo sapiens, DB, DB cells, CellTiter-Glo, read-out: Non-BCR activated DB GI50;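 note: DB cells in 384-well plates given a dilution series of compound, viable cells read by ATP luminescence, growth expressed versus DMSO control after subtracting a time-zero plate reading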
Description: OCI-LY-10 at 3,750 cells/well, TMD-8 and Ri-1 at 2,000 cells/well, and DB at 1,250 cells/well, respectively, were sorted into 384-well plates in RPMI1640 medium with 10% FBS. After overnight incubation, all cells were incubated with compound at a series of concentrations. Meanwhile, a duplicated plate of each cell line was prepared for measuring G0 value. The dosed plates were further incubated for 72 hours and the number of viable cells was measured by CellTiter-Glo® Luminescent Cell Viability Assay (Promega), a luminescent method for determining the number of viable cells through measurement of cellular ATP concentration using Envision plate reader (PerkinElmer). The percentage of proliferation was calculated as: % Proliferation = 100 × (G3 value of sample well - G0 value)/(G3 value of DMSO control - G0 value).

[13] = biological target: T5, EGFR L858R&T790M (Homo sapiens, UniProt P00533, L858R/T790M); experiment: EGFR L858R and T790M cellular phosphorylation inhibition in NCI-H1975 (MSD); conditions: NCI-H1975 cells, 4 h compound, p-EGFR(Y1068)/total EGFR; read-out: EGFR L858R and T790M mutation IC50;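 note: phosphorylated and total EGFR detected by electrochemiluminescence, cells exposed to compound in medium containing 1% FBS at 37 °C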
T5 construct: host or cells: NCI-H1975

[14] = tested on: OCI-LY-10 cells; experiment: BTK (wt) cell proliferation, OCI-LY-10 (CellTiter-Glo, 72 h); conditions: Homo sapiens, OCI-Ly10, 72 h, OCI-LY-10 cells, 72 h, CellTiter-Glo; read-out: BTK WT OCI-LY-10 GI50;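 note: viable cells quantified via cellular ATP luminescence, proliferation given as percent of DMSO control after subtracting a duplicate plate read at time of dosing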
[15] = Ba/F3 EGFR NPH ins, 72 h proliferation, read-out: EGFR Exon20 NPH insertion GI50
[16] = Ba/F3 EGFR ASV ins, 72 h proliferation, read-out: EGFR Exon20 ASV insertion GI50
[17] = A431, 72 h proliferation, read-out: EGFR WT A431 GI50
[18] = NCI-H1975, 72 h proliferation, read-out: EGFR L858R and T790M mutation GI50

T3 sequence (P00533 with tags, fused parts or gaps INS769ASV): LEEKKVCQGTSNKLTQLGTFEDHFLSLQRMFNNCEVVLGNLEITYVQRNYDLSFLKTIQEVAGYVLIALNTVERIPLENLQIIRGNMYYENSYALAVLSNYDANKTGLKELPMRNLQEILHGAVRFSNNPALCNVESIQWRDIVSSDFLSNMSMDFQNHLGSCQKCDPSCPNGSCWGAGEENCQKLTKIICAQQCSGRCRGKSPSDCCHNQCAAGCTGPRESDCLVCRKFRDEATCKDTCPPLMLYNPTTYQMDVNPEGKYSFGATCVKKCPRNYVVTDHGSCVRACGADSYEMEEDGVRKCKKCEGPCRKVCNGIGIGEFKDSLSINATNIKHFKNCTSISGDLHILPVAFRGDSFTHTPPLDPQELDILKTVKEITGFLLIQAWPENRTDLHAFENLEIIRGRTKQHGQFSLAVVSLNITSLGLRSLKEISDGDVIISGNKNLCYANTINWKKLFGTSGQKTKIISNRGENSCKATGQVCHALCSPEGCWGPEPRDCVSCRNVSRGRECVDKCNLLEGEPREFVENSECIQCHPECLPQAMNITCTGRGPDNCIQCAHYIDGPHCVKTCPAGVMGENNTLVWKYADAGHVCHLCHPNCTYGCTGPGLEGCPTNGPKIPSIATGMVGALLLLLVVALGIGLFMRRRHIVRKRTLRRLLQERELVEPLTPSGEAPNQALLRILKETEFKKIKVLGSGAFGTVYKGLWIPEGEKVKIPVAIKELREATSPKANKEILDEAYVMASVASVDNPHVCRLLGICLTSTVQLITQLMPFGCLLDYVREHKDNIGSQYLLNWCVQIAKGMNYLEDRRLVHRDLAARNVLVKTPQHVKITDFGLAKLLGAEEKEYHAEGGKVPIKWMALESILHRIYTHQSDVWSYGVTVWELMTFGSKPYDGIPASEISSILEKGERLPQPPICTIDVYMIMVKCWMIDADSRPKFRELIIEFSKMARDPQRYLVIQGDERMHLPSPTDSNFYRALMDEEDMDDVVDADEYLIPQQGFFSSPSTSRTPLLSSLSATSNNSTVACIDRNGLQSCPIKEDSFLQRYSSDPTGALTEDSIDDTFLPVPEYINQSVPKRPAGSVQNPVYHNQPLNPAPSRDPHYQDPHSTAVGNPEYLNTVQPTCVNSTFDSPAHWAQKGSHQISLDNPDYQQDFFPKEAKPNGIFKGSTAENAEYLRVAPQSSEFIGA
T5 sequence (P00533 25-1210 T790M/L858R): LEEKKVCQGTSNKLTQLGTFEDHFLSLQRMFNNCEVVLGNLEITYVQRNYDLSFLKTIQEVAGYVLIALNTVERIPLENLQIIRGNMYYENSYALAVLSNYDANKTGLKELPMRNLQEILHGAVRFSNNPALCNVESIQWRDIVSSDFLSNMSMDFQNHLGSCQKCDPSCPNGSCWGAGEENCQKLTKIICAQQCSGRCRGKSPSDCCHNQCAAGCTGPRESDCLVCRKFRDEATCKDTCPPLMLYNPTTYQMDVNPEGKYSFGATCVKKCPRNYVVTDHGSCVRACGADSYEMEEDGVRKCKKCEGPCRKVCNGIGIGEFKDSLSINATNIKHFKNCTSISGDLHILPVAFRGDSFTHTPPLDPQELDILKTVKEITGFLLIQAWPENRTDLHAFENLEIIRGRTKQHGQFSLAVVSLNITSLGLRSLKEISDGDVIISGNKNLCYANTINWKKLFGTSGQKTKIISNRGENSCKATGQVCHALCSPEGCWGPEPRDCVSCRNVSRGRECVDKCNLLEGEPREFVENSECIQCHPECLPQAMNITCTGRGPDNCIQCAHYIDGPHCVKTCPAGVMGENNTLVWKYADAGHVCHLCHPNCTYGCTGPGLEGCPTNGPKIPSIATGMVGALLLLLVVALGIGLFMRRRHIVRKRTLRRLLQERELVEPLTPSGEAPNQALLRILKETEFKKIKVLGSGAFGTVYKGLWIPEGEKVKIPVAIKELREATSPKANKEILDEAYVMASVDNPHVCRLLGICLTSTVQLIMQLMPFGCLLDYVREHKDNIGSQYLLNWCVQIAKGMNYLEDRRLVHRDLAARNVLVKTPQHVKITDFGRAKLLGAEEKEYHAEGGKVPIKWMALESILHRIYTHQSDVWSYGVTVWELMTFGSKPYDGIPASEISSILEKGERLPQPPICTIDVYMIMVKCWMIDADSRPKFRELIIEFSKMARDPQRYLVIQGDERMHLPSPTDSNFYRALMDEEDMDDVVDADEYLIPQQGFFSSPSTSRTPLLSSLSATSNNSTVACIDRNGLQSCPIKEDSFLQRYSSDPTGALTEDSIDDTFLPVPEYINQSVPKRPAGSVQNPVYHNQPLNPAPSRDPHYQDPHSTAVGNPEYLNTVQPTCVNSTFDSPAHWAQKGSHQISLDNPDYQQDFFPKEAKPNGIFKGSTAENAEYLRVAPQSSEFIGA
T2 sequence (P04626 with tags, fused parts or gaps INS775YVMA): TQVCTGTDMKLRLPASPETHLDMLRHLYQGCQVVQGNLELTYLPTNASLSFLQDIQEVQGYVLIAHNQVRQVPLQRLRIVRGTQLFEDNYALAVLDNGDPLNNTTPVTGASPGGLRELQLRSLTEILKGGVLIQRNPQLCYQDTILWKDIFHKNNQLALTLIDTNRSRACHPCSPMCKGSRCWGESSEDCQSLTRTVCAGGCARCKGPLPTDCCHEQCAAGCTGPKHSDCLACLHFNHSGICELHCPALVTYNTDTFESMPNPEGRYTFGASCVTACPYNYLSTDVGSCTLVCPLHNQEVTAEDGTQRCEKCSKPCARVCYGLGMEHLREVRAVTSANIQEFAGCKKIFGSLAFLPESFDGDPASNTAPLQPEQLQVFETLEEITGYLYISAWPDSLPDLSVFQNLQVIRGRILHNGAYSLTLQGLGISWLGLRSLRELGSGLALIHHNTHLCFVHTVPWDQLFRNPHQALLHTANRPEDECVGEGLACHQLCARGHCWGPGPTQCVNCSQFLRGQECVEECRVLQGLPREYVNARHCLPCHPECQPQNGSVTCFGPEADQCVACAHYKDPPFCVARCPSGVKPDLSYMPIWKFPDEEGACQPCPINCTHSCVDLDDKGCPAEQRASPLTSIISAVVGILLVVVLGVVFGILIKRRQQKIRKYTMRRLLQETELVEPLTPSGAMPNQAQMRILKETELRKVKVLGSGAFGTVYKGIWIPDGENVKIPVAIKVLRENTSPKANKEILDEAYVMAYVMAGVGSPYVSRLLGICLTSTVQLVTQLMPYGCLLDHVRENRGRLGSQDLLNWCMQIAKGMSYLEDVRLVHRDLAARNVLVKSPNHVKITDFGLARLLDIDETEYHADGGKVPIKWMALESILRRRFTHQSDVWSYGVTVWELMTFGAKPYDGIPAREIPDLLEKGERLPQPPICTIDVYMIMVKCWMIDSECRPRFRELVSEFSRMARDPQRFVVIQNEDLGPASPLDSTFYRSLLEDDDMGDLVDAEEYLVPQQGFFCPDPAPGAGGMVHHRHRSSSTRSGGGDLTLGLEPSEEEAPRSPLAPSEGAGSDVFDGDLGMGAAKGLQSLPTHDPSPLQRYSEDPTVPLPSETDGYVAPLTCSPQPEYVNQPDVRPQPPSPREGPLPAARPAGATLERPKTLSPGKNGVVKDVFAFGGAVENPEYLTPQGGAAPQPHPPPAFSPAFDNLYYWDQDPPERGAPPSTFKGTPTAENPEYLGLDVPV
T4 sequence (P00533 25-1210): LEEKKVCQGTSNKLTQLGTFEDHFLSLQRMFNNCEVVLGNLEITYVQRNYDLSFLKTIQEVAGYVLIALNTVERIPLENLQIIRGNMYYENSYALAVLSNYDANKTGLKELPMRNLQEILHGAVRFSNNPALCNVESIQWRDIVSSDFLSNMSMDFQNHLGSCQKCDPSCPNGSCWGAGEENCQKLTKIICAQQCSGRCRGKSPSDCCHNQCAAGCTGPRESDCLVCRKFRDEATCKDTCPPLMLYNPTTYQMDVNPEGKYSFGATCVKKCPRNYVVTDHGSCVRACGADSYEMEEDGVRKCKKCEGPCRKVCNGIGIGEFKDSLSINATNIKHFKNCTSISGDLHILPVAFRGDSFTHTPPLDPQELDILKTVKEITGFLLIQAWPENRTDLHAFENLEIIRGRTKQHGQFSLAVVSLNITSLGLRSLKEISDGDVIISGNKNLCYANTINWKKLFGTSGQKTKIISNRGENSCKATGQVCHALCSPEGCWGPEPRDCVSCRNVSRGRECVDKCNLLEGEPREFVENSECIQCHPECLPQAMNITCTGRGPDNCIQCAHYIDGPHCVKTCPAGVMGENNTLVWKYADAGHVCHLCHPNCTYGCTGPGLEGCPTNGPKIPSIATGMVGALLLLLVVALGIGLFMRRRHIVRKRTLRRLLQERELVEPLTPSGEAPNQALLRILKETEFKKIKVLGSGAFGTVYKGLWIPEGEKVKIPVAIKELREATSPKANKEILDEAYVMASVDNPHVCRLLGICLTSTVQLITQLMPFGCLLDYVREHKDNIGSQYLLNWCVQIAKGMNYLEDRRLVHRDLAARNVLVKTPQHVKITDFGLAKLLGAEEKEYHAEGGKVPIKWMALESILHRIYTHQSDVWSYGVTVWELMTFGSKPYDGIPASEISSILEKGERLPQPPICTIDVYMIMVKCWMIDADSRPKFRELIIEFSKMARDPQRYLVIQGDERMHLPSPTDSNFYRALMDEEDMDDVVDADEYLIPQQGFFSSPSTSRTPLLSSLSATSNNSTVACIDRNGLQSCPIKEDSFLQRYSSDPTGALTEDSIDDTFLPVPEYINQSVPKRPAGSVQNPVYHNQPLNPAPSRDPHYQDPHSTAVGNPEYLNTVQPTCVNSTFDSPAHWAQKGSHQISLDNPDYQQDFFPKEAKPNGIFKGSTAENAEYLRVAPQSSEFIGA

| SMILES | IC50 [1] | GI50 [2] | IC50 [3] | GI50 [4] | GI50 [5] | IC50 [6] | IC50 [7] | GI50 [8, 15] | GI50 [9, 16] | GI50 [10, 17] | GI50 [11, 18] | GI50 [12] | IC50 [13] | GI50 [14] | GI50 ([8]; read-out: EGFR Exon20 NPH insertion GI50 (nM)) | GI50 ([9]; read-out: EGFR Exon20 ASV insertion GI50 (nM)) | GI50 ([10]; read-out: EGFR WT A431 GI50 (nM)) | GI50 ([11]; read-out: EGFR L858R and T790M mutation GI50 (nM)) |
| --- | --- | --- | --- | --- | --- | --- | --- | --- | --- | --- | --- | --- | --- | --- | --- | --- | --- | --- |
| C=CC(=O)Nc1cc(Nc2ncnc(Nc3cc(F)c(F)cc3C(C)(C)O)n2)c(OC)cc1N1CC[C@@H]1CN(C)C [Compound 19, (R)-N-(5-(4-(4,5-difluoro-2-(2-hydroxypropan-2-yl)phenylamino)-1,3,5-triazin-2-ylamino)-2-(2-((dimethylamino)methyl)azetidin-1-yl)-4-methoxyphenyl)acrylamide] | 46.5 nM | 13 nM | 21.3 nM | 133 nM | 163 nM | 29.7 nM | 29.7 nM | 80 nM | 80.9 nM | 23.1 nM | 9.5 nM | > 3000 nM | 0.9 nM | 10.8 nM | – | – | – | – |
| C=CC(=O)Nc1cc(Nc2ncnc(Nc3cc(F)c(F)cc3C(C)(O)CC)n2)c(OC)cc1N1CC[C@@H]1CN(C)C (stereo partly drawn) [Compound 55, N-(5-(4-(4,5-difluoro-2-(2-hydroxybutan-2-yl)phenylamino)-1,3,5-triazin-2-ylamino)-2-((R)-2-((dimethylamino)methyl)azetidin-1-yl)-4-methoxyphenyl)acrylamide] | 20.1 nM | 11.5 nM | 8.4 nM | 12 nM | 88.9 nM | 9.8 nM | 30.9 nM | 62.6 nM | 44.1 nM | 14.6 nM | 3.8 nM | > 3000 nM | 0.8 nM | 6.68 nM | – | – | – | – |
| C=CC(=O)Nc1cc(Nc2ncnc(Nc3cc(F)c(Cl)cc3C(C)(C)O)n2)c(OC)cc1N1CC[C@@H]1CN(C)C [Compound 62, (R)-N-(5-(4-(4-chloro-5-fluoro-2-(2-hydroxypropan-2-yl)phenylamino)-1,3,5-triazin-2-ylamino)-2-(2-((dimethylamino)methyl)azetidin-1-yl)-4-methoxyphenyl)acrylamide] | 19.3 nM | 3.79 nM | 11.4 nM | 84 nM | 114 nM | 10.7 nM | 27.4 nM | 45.8 nM | 34.8 nM | 13.3 nM | 3.2 nM | > 3000 nM | 0.5 nM | 5.3 nM | – | – | – | – |
| C=CC(=O)Nc1cc(Nc2ncnc(Nc3cc(Cl)c(F)cc3C(C)(O)CC)n2)c(OC)cc1N1CCC[C@H]1CN(C)C (stereo partly drawn) [Compound 64, N-(5-(4-(5-chloro-4-fluoro-2-(2-hydroxybutan-2-yl)phenylamino)-1,3,5-triazin-2-ylamino)-2-((S)-2-((dimethylamino)methyl)pyrrolidin-1-yl)-4-methoxyphenyl)acrylamide] | 267 nM | – | 143 nM | – | 640 nM | 240 nM | 555 nM | 359 nM | 395 nM | 220 nM | 24.2 nM | – | 7.1 nM | – | – | – | – | – |
| C=CC(=O)Nc1cc(Nc2ncnc(Nc3cc(F)c(F)cc3C(C)(C)O)n2)c(OC)cc1N1CC[C@H]2CN(C)C[C@H]21 [Compound 25, N-(5-(4-(4,5-difluoro-2-(2-hydroxypropan-2-yl)phenylamino)-1,3,5-triazin-2-ylamino)-4-methoxy-2-((3aS,6aS)-5-methylhexahydropyrrolo[3,4-b]pyrrol-1(2H)-yl)phenyl) acrylamide] | 376 nM | – | 534 nM | – | 989 nM | 388 nM | 838 nM | 618 nM | 552 nM | 329 nM | 165 nM | – | 7.9 nM | – | – | – | – | – |
| C=CC(=O)Nc1cc(Nc2ncnc(Nc3ccccc3C(C)(C)O)n2)c(OC)cc1N1CCC[C@@H](N(C)C)C1 [Compound 1, (R)-N-(2-(3-(dimethylamino)piperidin-1-yl)-5-(4-(2-(2-hydroxypropan-2-yl)phenylamino)-1,3,5-triazin-2-ylamino)-4-methoxyphenyl)acrylamide] | 423 nM | – | 318 nM | – | 905 nM | 386 nM | 599 nM | 999 nM | 926 nM | 334 nM | 282 nM | – | 5.2 nM | – | – | – | – | – |
| C=CC(=O)Nc1cc(Nc2ncnc(Nc3cc(F)c(F)cc3C(C)(O)CC)n2)c(OC)cc1N1CC[C@H]2CN(C)C[C@H]21 (some centres unmarked) [Compound 50, N-(5-(4-(4,5-difluoro-2-(2-hydroxybutan-2-yl)phenylamino)-1,3,5-triazin-2-ylamino)-4-methoxy-2-((3 aS, 6aS)-5-methylhexahydropyrrolo[3,4-b]pyrrol-1 (2H)-yl)phenyl) acrylamide] | 2630 nM | – | 382 nM | – | 1080 nM | 308 nM | 1110 nM | 802 nM | 449 nM | 277 nM | 30 nM | – | 19 nM | – | – | – | – | – |
| C=CC(=O)Nc1cc(Nc2ncnc(Nc3cc(Cl)c(F)cc3C(C)(C)O)n2)c(OC)cc1N(C)CCN1CCC[C@@H]1C [Compound 42, (S)-N-(5-(4-(5-chloro-4-fluoro-2-(2-hydroxypropan-2-yl)phenylamino)-1,3,5-triazin-2-ylamino)-4-methoxy-2-(methyl(2-(2-methylpyrrolidin-1-yl)ethyl)amino)phenyl) acrylamide] | 35.8 nM | – | 33.9 nM | – | 195 nM | 63.3 nM | 133 nM | 137 nM | 144 nM | 53.2 nM | 8.5 nM | – | 1.8 nM | – | – | – | – | – |
| COc1cc(N(C)CCN(C)C)c(NC(=O)/C=C/CN(C)C)cc1Nc1ncnc(Nc2cc(F)c(F)cc2C(C)(C)O)n1 [Compound 5, (E)-N-(5-(4-(4,5-difluoro-2-(2-hydroxypropan-2-yl)phenylamino)-1,3,5-triazin-2-ylamino)-2-((2-(dimethylamino)ethyl)(methyl)amino)-4-methoxypheny 1)-4-(dimethylamino)but-2-enamide] | 271 nM | – | 36.2 nM | – | 68.9 nM | 170 nM | 90.3 nM | 461 nM | 234 nM | 117 nM | 114 nM | – | 6.3 nM | – | – | – | – | – |
| C=CC(=O)Nc1cc(Nc2ncnc(Nc3cc(Cl)c(F)cc3C(C)(C)O)n2)c(OC)cc1N1CCC[C@H]1CN(C)C [Compound 65, (S)-N-(5-(4-(5-chloro-4-fluoro-2-(2-hydroxypropan-2-yl)phenylamino)-1,3,5-triazin-2-ylamino)-2-(2-((dimethylamino)methyl)pyrrolidin-1-yl)-4-methoxyphenyl)acrylamide] | 315 nM | – | 188 nM | – | 776 nM | 358 nM | 479 nM | 382 nM | 484 nM | 234 nM | 29.6 nM | – | 7.9 nM | – | – | – | – | – |
| C=CC(=O)Nc1cc(Nc2nccc(Nc3cc(Cl)c(F)cc3C(C)(C)O)n2)c(OC)cc1N1C[C@H](N(C)C)C2(CC2)C1 [Compound 83, (R)-N-(5-(4-(5-chloro-4-fluoro-2-(2-hydroxypropan-2-yl)phenylamino)pyrimidin-2-ylamino)-2-(7-(dimethylamino)-5-azaspiro[2.4]heptan-5-yl)-4-methoxyphenyl) acrylamide formic acid salt] | 239 nM | – | 87.6 nM | – | 678 nM | 154 nM | 1010 nM | – | – | – | – | – | 5 nM | – | 300 nM | 340 nM | 252 nM | 38.9 nM |
